Results: ChEMBL document CHEMBL1144765, “Des-A-ring benzothiadiazines: inhibitors of HCV genotype 1 NS5B RNA-dependent RNA polymerase” (Bioorg Med Chem Lett, 2008)

Columns and labels:
Experiment in all cases: microbe, parasite or virus in culture
[1] = system: Hepatitis C virus; settings: subtype 1a
Description: Antiviral activity against HCV 1a by replicon based assay

[2] = system: Hepatitis C virus; settings: genotype 1b
Description: Antiviral activity against HCV 1b by replicon based assay

[3] = system: Hepatitis C virus; settings: genotype 1b; remark: listed apart in the source
Description: Antiviral activity against HCV 1b in presence of 5% fetal calf serum by replicon based assay

[4] = system: Hepatitis C virus; settings: genotype 1b; remark: listed apart in the source
Description: Antiviral activity against HCV 1b in presence of 40% human serum by replicon based assay

Row | SMILES | EC50 [1] [nM] | EC50 [2] [nM] | EC50 [3] [nM] | EC50 [4] [nM]
1 | CC(C)CCn1c(=O)c(C2=NS(=O)(=O)c3cc(NS(C)(=O)=O)ccc3N2)c(O)c2cccnc21 | 16 | 2 | 2 | 736
2 | C/C=C/c1cn(CCC(C)C)c(=O)c(C2=NS(=O)(=O)c3cc(NS(C)(=O)=O)ccc3N2)c1O | – | – | 5.6 | 38.2
3 | CC(C)CCn1ccc(O)c(C2=NS(=O)(=O)c3cc(NS(C)(=O)=O)ccc3N2)c1=O | – | – | 163 | 911
4 | C=Cc1cn(CCC(C)C)c(=O)c(C2=NS(=O)(=O)c3cc(NS(C)(=O)=O)ccc3N2)c1O | – | – | 8.8 | 62.5
